Test results taken from patent US20100003217A1, “Compounds and Pharmaceutical Compositions for the Treatment of Viral Infections” (priority 2008, published 2010).
Where “and” joins values, the source holds several entries; their conditions need not be identical. Equal entries are not always repeated.

How the values were obtained:
Assay type in all cases: in vitro ADME
[1] = Metabolite profiling in monkey liver microsomes; set-up: key: +: peak detected; ?: peak observed; ND: not detected; conditions: 50 μM Compound 1, 2 hours
Description: (§1) Preliminary identification of putative metabolites was conducted by comparing the retention time of observed metabolites with retention times obtained with chemically synthesized standards using the following HPLC-UV method:
(§2) Incubations with liver microsomes, liver cytosol or pig liver esterase were conducted in a final volume of 0.1 mL per incubation time point. Pooled microsomal protein (1.0 mg/mL) suspended in incubation buffer (0.1 M potassium phosphate, pH 7.4) was incubated for 2 hours at 37° C. with 50 μM Compound 1 from a stock solution in DMSO (final DMSO concentration was 0.1%); the microsomal reaction was initiated by the addition of an NADPH regenerating system (1.3 mM NADP^+, 3.3 mM glucose-6-phosphate, 0.4 U/ml glucose-6-phosphate dehydrogenase, and 3.3 mM MgCl2, final concentrations). Incubations with no NADPH or no protein served as controls. Reactions were terminated by the addition of 0.1 mL of stop solution (acetonitrile). The samples were vortex-mixed for 30 sec and then centrifuged at 10,000×g for 10 min. The supernatant was dried using a Labconco CentriVap concentrator and the dry residue reconstituted in water, transferred to an HPLC glass vial and analyzed by HPLC-UV method 2 (described above).
(§3) Results: Preliminary identification was accomplished by comparing LC elution of metabolites with that of available synthetic standards of putative metabolites (FIG. 2). Metabolites U1, U2 and U3 were characterized based on the retention times.

[2] = Metabolite profiling in human liver microsomes; set-up: key: +: peak detected; ?: peak observed; ND: not detected; conditions: 50 μM Compound 1, 2 hours
Description: as §1, §2, §3

[3] = tested on: human primary hepatocytes; experiment: Metabolic disposition of [^14C]-Compound 1 and [^14C]-2′-C-methyl guanosine in human primary hepatocytes (incubation medium, cellular extracts, nucleotide levels)
Summary of the method: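 Radio-HPLC and liquid scintillation counting quantified metabolites in incubation medium and in 70% methanol cell extracts. Samples came from cultured rat, monkey or human primary hepatocytes exposed at 37° C to 1 or 10 μM [^14C]-compound or [^14C]-2′-C-methyl guanosine, sampled at 1–24 hours. Phosphates were confirmed by phosphatase digestion to the nucleoside.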

[4] = human hepatocytes (Hu775), 1 μM [^14C]-Compound 1, 0 h
[5] = human hepatocytes (Hu775), 1 μM [^14C]-Compound 1, 1 h
[6] = human hepatocytes (Hu775), 1 μM [^14C]-Compound 1, 8 h
[7] = human hepatocytes (Hu775), 1 μM [^14C]-Compound 1, 24 h
[8] = human hepatocytes Hu775, 1 μM [^14C]-2′-C-methyl guanosine, 1 h
[9] = human hepatocytes Hu775, 1 μM [^14C]-2′-C-methyl guanosine, 8 h
[10] = human hepatocytes Hu775, 1 μM [^14C]-2′-C-methyl guanosine, 24 h

In vitro metabolite profile in microsomes following incubation with Compound 1 (peak detection) [1]: +
In vitro metabolite profile in microsomes following incubation with Compound 1 (peak detection) [2]: +
metabolites observed in cellular extracts (% of total radioactivity) ([3]; human hepatocytes (Hu759, Hu775), 10 μM [^14C]-2′-C-methyl guanosine, 8 h): 1.89% and 1.11%
metabolites observed in cellular extracts (% of total radioactivity) ([3]; human hepatocytes (Hu759, Hu775), 10 μM [^14C]-2′-C-methyl guanosine, 24 h): 3.82% and 3.41%
metabolites observed in cellular extracts (% of total radioactivity) ([3]; human hepatocytes (Hu759, Hu775), 10 μM [^14C]-Compound 1, 1 h): 6.44% and 8.77%
metabolites observed in cellular extracts (% of total radioactivity) ([3]; human hepatocytes (Hu759, Hu775), 10 μM [^14C]-Compound 1, 4 h): 5.70% and 5.54%
metabolites observed in cellular extracts (% of total radioactivity) ([3]; human hepatocytes (Hu759, Hu775), 10 μM [^14C]-Compound 1, 8 h): 7.99% and 4.44%
metabolites observed in cellular extracts (% of total radioactivity) ([3]; human hepatocytes (Hu759, Hu775), 10 μM [^14C]-Compound 1, 24 h): 5.38% and 12.8%
metabolites observed in medium (% of total radioactivity) [3, 4]: BLD
2′-C-methyl guanosine nucleotide levels in cellular extracts [3, 5]: 2.40 pmol/million cells
metabolites observed in cellular extracts (% of total radioactivity) [3, 5]: 5.45%
metabolites observed in medium (% of total radioactivity) [3, 5]: BLD
2′-C-methyl guanosine nucleotide levels in cellular extracts [3, 6]: 2.10 pmol/million cells
metabolites observed in cellular extracts (% of total radioactivity) [3, 6]: 3.60%
metabolites observed in medium (% of total radioactivity) [3, 6]: 10.4%
2′-C-methyl guanosine nucleotide levels in cellular extracts [3, 7]: 5.80 pmol/million cells
metabolites observed in cellular extracts (% of total radioactivity) [3, 7]: 6.41%
metabolites observed in medium (% of total radioactivity) [3, 7]: 8% and 8.29%
metabolites observed in medium (% of total radioactivity) ([3]; human hepatocytes (lots Hu759, Hu775), 10 μM [^14C]-Compound 1, 0 h): BLD
metabolites observed in medium (% of total radioactivity) ([3]; human hepatocytes (lots Hu759, Hu775), 10 μM [^14C]-Compound 1, 1 h): 4.4% and 0.5%
metabolites observed in medium (% of total radioactivity) ([3]; human hepatocytes (lots Hu759, Hu775), 10 μM [^14C]-Compound 1, 4 h): 3.9% and 4.5%
metabolites observed in medium (% of total radioactivity) ([3]; human hepatocytes (lots Hu759, Hu775), 10 μM [^14C]-Compound 1, 8 h): 5.1% and 7.2%
metabolites observed in medium (% of total radioactivity) ([3]; human hepatocytes (lots Hu759, Hu775), 10 μM [^14C]-Compound 1, 24 h): 4.7% and 7.1%
2′-C-methyl guanosine nucleotide levels in cellular extracts ([3]; human hepatocytes Hu759, 10 μM [^14C]-2′-C-methyl guanosine, 0 h): 0 pmol/million cells
2′-C-methyl guanosine nucleotide levels in cellular extracts ([3]; human hepatocytes Hu759, 10 μM [^14C]-2′-C-methyl guanosine, 8 h): 9.00 pmol/million cells
2′-C-methyl guanosine nucleotide levels in cellular extracts ([3]; human hepatocytes Hu759, 10 μM [^14C]-2′-C-methyl guanosine, 24 h): 23.0 pmol/million cells
2′-C-methyl guanosine nucleotide levels in cellular extracts ([3]; human hepatocytes Hu759, 10 μM [^14C]-Compound 1, 0 h): 0 pmol/million cells
2′-C-methyl guanosine nucleotide levels in cellular extracts ([3]; human hepatocytes Hu759, 10 μM [^14C]-Compound 1, 1 h): 4.00 pmol/million cells
2′-C-methyl guanosine nucleotide levels in cellular extracts ([3]; human hepatocytes Hu759, 10 μM [^14C]-Compound 1, 4 h): 15.0 pmol/million cells
2′-C-methyl guanosine nucleotide levels in cellular extracts ([3]; human hepatocytes Hu759, 10 μM [^14C]-Compound 1, 8 h): 25.0 pmol/million cells
2′-C-methyl guanosine nucleotide levels in cellular extracts ([3]; human hepatocytes Hu759, 10 μM [^14C]-Compound 1, 24 h): 28.0 pmol/million cells
2′-C-methyl guanosine nucleotide levels in cellular extracts [3, 10]: 1.50 pmol/million cells
Major metabolites observed in cellular extracts (% of total radioactivity) [3, 10]: 3.39 % of total radioactivity
2′-C-methyl guanosine nucleotide levels in cellular extracts ([3]; human hepatocytes Hu775, 10 μM [^14C]-2′-C-methyl guanosine, 0 h): 0 pmol/million cells
2′-C-methyl guanosine nucleotide levels in cellular extracts ([3]; human hepatocytes Hu775, 10 μM [^14C]-2′-C-methyl guanosine, 1 h): 2.80 pmol/million cells
2′-C-methyl guanosine nucleotide levels in cellular extracts ([3]; human hepatocytes Hu775, 10 μM [^14C]-2′-C-methyl guanosine, 4 h): 4.00 pmol/million cells
2′-C-methyl guanosine nucleotide levels in cellular extracts ([3]; human hepatocytes Hu775, 10 μM [^14C]-2′-C-methyl guanosine, 8 h): 4.90 pmol/million cells
2′-C-methyl guanosine nucleotide levels in cellular extracts ([3]; human hepatocytes Hu775, 10 μM [^14C]-2′-C-methyl guanosine, 24 h): 16.0 pmol/million cells
2′-C-methyl guanosine nucleotide levels in cellular extracts ([3]; human hepatocytes Hu775, 10 μM [^14C]-Compound 1, 0 h): 0 pmol/million cells
2′-C-methyl guanosine nucleotide levels in cellular extracts ([3]; human hepatocytes Hu775, 10 μM [^14C]-Compound 1, 1 h): 10.3 pmol/million cells
2′-C-methyl guanosine nucleotide levels in cellular extracts ([3]; human hepatocytes Hu775, 10 μM [^14C]-Compound 1, 4 h): 17.1 pmol/million cells
2′-C-methyl guanosine nucleotide levels in cellular extracts ([3]; human hepatocytes Hu775, 10 μM [^14C]-Compound 1, 8 h): 21.9 pmol/million cells
2′-C-methyl guanosine nucleotide levels in cellular extracts ([3]; human hepatocytes Hu775, 10 μM [^14C]-Compound 1, 24 h): 121 pmol/million cells
SMILES: C[C@@]1(O)[C@H](O)[C@@H](COP(=O)(O)O)O[C@H]1n1cnc2c(=O)[nH]c(N)nc21 [Compound 5, [(2R)-2-methyl-β-D-ribofuranosyl]guanine 5′-monophosphate]
2′-C-methyl guanosine nucleotide levels in cellular extracts [3, 4]: BLD^a (BLD = below limit of detection (0.02 pmol/million cells))
2′-C-methyl guanosine nucleotide levels in cellular extracts ([3]; human hepatocytes Hu759, 10 μM [^14C]-2′-C-methyl guanosine, 1 h): BLD^a (BLD = below limit of detection (0.02 pmol/million cells))
2′-C-methyl guanosine nucleotide levels in cellular extracts ([3]; human hepatocytes Hu759, 10 μM [^14C]-2′-C-methyl guanosine, 4 h): BLD (BLD = below limit of detection (0.02 pmol/million cells))
2′-C-methyl guanosine nucleotide levels in cellular extracts ([3]; human hepatocytes Hu775, 1 μM [^14C]-2′-C-methyl guanosine, 0 h): BLD (BLD = below limit of detection (0.02 pmol/million cells))
2′-C-methyl guanosine nucleotide levels in cellular extracts [3, 8]: BLD (BLD = below limit of detection (0.02 pmol/million cells))
Major metabolites observed in cellular extracts (% of total radioactivity) [3, 8]: BLD^a (BLD = below limit of detection (30 DPM))
2′-C-methyl guanosine nucleotide levels in cellular extracts [3, 9]: BLD (BLD = below limit of detection (0.02 pmol/million cells))
Major metabolites observed in cellular extracts (% of total radioactivity) [3, 9]: BLD (BLD = below limit of detection (30 DPM))
